# Experimental data reported in the SangsterLogP compilation.
# Test: method code SF-AS, from PMID: 8295915
row,Compound,logP
1,Cc1nc(N)sc1C(=O)CCN1CCOCC1,0.82
2,Cc1nc(N)sc1C(=O)CCN1CCCCC1,2.13
3,Cc1nc(N)sc1C(=O)CCN1CCCC1,1.74
4,CCNc1nc(C)c(C(=O)CCN2CCCCC2)s1,2.66
5,CCNc1nc(C)c(C(=O)CCN2CCOCC2)s1,1.43
6,CNc1nc(C)c(C(=O)CCN2CCOCC2)s1,0.95
7,CNc1nc(C)c(C(=O)CCN2CCCC2)s1,1.86
8,CNc1nc(C)c(C(=O)CCN2CCCCC2)s1,2.21

# Second part, the compound after the results:
row,logP,Compound
1,1.76,CCN(CC)CCC(=O)c1sc(N)nc1C
2,1.47,Cc1nc(N)sc1C(=O)CCN(C)C
3,2.72,CCNc1nc(C)c(C(=O)CCN(CC)CC)s1
4,1.58,CNc1nc(C)c(C(=O)CCN(C)C)s1
5,2.21,CCNc1nc(C)c(C(=O)CCN(C)C)s1
